This note sets out measurements from PubChem BioAssay AID1963969 (Molecular Pharmacology Branch, DTP, NCI, 2024).

The test system of the assay is 817829-284-R-J1-PDC multi-cell spheroid viability. Nature of the assay: Anticancer human tumor 817829-284-R-J1-PDC patient-derived colon adenocarcinoma cell line growth inhibition [PI3K]. To be noted: for viability, T/C: stronger effect = lower value. Put shortly:
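Three cell types, namely tumor cells, endothelial cells and mesenchymal stem cells, formed each spheroid. Combinations with four PI3K inhibitors were screened at clinically achievable concentrations decreasing by half-log, and spheroid viability was recorded.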

[1] abbreviates: curve of first compound, second compound 0.0316 µM.
[2] abbreviates: curve of first compound, second compound 0.1 µM.
Setting [3] is: curve of first compound, second compound 0.316 µM.
Setting [4] is: curve of first compound, second compound 1 µM.
Where [5] appears, read: second compound 0.0316 µM, first compound 0.00949 µM.
Setting [6] is: second compound 0.0316 µM, first compound 0.03 µM.
The mark [7] stands for this setting: second compound 0.0316 µM, first compound 0.0949 µM.
The mark [8] stands for this setting: second compound 0.0316 µM, first compound 0.3 µM.
The mark [9] stands for this setting: second compound 0.0316 µM, first compound 0.949 µM.
Setting [10] is: second compound 0.0316 µM, first compound 3 µM.
Where [11] appears, read: second compound 0.1 µM, first compound 0.00949 µM.
Setting [12] is: second compound 0.1 µM, first compound 0.03 µM.
The mark [13] stands for this setting: second compound 0.1 µM, first compound 0.0949 µM.
[14] abbreviates: second compound 0.1 µM, first compound 0.3 µM.
Setting [15] is: second compound 0.1 µM, first compound 0.949 µM.
[16] abbreviates: second compound 0.1 µM, first compound 3 µM.
[17] abbreviates: second compound 0.316 µM, first compound 0.00949 µM.
Setting [18] is: second compound 0.316 µM, first compound 0.03 µM.
[19] abbreviates: second compound 0.316 µM, first compound 0.0949 µM.
The mark [20] stands for this setting: second compound 0.316 µM, first compound 0.3 µM.
Setting [21] is: second compound 0.316 µM, first compound 0.949 µM.
[22] abbreviates: second compound 0.316 µM, first compound 3 µM.
The mark [23] stands for this setting: second compound 1 µM, first compound 0.00949 µM.
The mark [24] stands for this setting: second compound 1 µM, first compound 0.03 µM.
Where [25] appears, read: second compound 1 µM, first compound 0.0949 µM.
The mark [26] stands for this setting: second compound 1 µM, first compound 0.3 µM.
Setting [27] is: second compound 1 µM, first compound 0.949 µM.
The mark [28] stands for this setting: second compound 1 µM, first compound 3 µM.

pIC50: −log10 of the molar value. Where “and” joins values, the source holds several entries; their conditions need not be identical. Equal values may be shown once. Some results are limits rather than exact numbers.
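Note: spheroids exposed to agents for seven days before readout.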
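Throughout, for viability, T/C: percent of vehicle DMSO control viability which is 100%.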

By pIC50 is commonly meant −log10 of the IC50, conventionally taken in molar units. A word on the viability, T/C: it is the result in the treated group divided by that in the control group, in per cent. On to `Cn1cnc2c(F)c(Nc3ccc(Br)cc3Cl)c(C(=O)NOCCO)cc21` + COc1c(OCCCN2CCOCC2)ccc2c3n(c(=NC(=O)c4cnc(N)nc4)nc12)CCN3, for which the negative logarithm of the IC50 (pIC50) was 6.31 (curve of first compound, second compound 0.00316 µM); 7.08 (curve of first compound, second compound 0.01 µM); 7.10 under setting [1]; above 8.02 under setting [2]; above 8.02 under setting [3]; above 8.02 under setting [4]. The viability, T/C is, setting by setting: (second compound 0.00316 µM, first compound 0.00949 µM) 63.7%; (second compound 0.00316 µM, first compound 0.03 µM) 43.5%; (second compound 0.00316 µM, first compound 0.0949 µM) 70.4%; (second compound 0.00316 µM, first compound 0.3 µM) 69%; (second compound 0.00316 µM, first compound 0.949 µM) 34%; (second compound 0.00316 µM, first compound 3 µM) 32.1%. Moreover, the viability, T/C (second compound 0.01 µM, first compound 0.00949 µM) is 62.3%; the viability, T/C (second compound 0.01 µM, first compound 0.03 µM) was 72.2%; the viability, T/C (second compound 0.01 µM, first compound 0.0949 µM) is 35.5%; the viability, T/C (second compound 0.01 µM, first compound 0.3 µM) was 43.7%; the viability, T/C (second compound 0.01 µM, first compound 0.949 µM) is 32.7%; the viability, T/C (second compound 0.01 µM, first compound 3 µM) was 22.9%. The viability, T/C under setting [5] was 66.5%; the viability, T/C under setting [6] was 50.9%; the viability, T/C under setting [7] was 56%; the viability, T/C under setting [8] is 39.5%; the viability, T/C under setting [9] is 25.8%; the viability, T/C under setting [10] was 18%. Also, the viability, T/C under setting [11] was 48%; the viability, T/C under setting [12] is 27.9%; the viability, T/C under setting [13] is 39.6%; the viability, T/C under setting [14] is 29.3%; the viability, T/C under setting [15] was 24.4%; the viability, T/C under setting [16] was 29.3%. The viability, T/C under setting [17] is 19.6%; the viability, T/C under setting [18] was 14.8%; the viability, T/C under setting [19] was 16.3%; the viability, T/C under setting [20] was 11.3%; the viability, T/C under setting [21] was 11.7%; the viability, T/C under setting [22] is 6.47%. Besides, the viability, T/C was 15.4% under setting [23]; 7.31% under setting [24]; 5.89% under setting [25]; 4.21% under setting [26]; 4.29% under setting [27]; 1.75% under setting [28].

As to `CC1(C)CCC(CN2CCN(c3ccc(C(=O)NS(=O)(=O)c4ccc(NCC5CCOCC5)c([N+](=O)[O-])c4)c(Oc4cnc5[nH]ccc5c4)c3)CC2)=C(c2ccc(Cl)cc2)C1`, the viability, T/C was 66.2% and 63.1% and 99.8% (compound 0.0316 µM); 60.4% and 90.3% and 105% (compound 0.1 µM); 60.5% and 85.7% and 66.8% (compound 0.316 µM); 84.6% and 95.4% and 97.1% (compound 1 µM); 98.1% and 98.5% and 56.7% (compound 3.16 µM). Further, where the note is “curve of compound”, the pIC50 is < 5.00 and 5.25 and 5.44.

Regarding `CC(=O)c1c(C)c2cnc(Nc3ccc(N4CCNCC4)cn3)nc2n(C2CCCC2)c1=O`, the viability, T/C runs as follows: (compound 0.0316 µM) 54.6% [middle of 4 runs]; (compound 0.1 µM) 39.3% [middle of 4 runs].

Take `CC(C)NCC(C(=O)N1CCN(c2ncnc3c2C(C)CC3O)CC1)c1ccc(Cl)cc1` (centres undefined): the viability, T/C is 74.6% and 90.4% (compound 0.0316 µM); 61.1% and 54.8% (compound 0.1 µM); 38.5% and 41.4% (compound 0.316 µM); 28% and 27.8% (compound 1 µM); 21% and 17.3% (compound 3.16 µM); 10.7% and 10.9% (compound 10 µM). In addition, under “curve of compound”, the pIC50 was 6.75 and 6.77.

As to `Cn1cnc2c(F)c(Nc3ccc(Br)cc3Cl)c(C(=O)NOCCO)cc21` + Cc1nc(NC(=O)N2CCCC2C(N)=O)sc1-c1ccnc(C(C)(C)C(F)(F)F)c1, the negative-log IC50 (pIC50) by setting is: under setting [1], 6.54; under setting [2], 6.50; under setting [3], 6.80; under setting [4], 6.87; (curve of first compound, second compound 3.16 µM) 6.24; (curve of first compound, second compound 10 µM) 6.53. The viability, T/C is, setting by setting: under setting [5], 96.6%; under setting [6], 63%; under setting [7], 67.3%; under setting [8], 44.5%; under setting [9], 50.2%; under setting [10], 22.4%. Also, the viability, T/C was 80.8% under setting [11]; 62.1% under setting [12]; 59.7% under setting [13]; 46.8% under setting [14]; 49.6% under setting [15]; 31.2% under setting [16]. The viability, T/C by setting is: under setting [17], 82.2%; under setting [18], 60.4%; under setting [19], 62.8%; under setting [20], 39.6%; under setting [21], 35.3%; under setting [22], 22.8%. Also, the viability, T/C under setting [23] is 67.7%; the viability, T/C under setting [24] was 44.9%; the viability, T/C under setting [25] was 48.2%; the viability, T/C under setting [26] was 62%; the viability, T/C under setting [27] was 27.3%; the viability, T/C under setting [28] is 29.4%. Also, the viability, T/C was 118% (second compound 3.16 µM, first compound 0.00949 µM); 88.8% (second compound 3.16 µM, first compound 0.03 µM); 74.1% (second compound 3.16 µM, first compound 0.0949 µM); 70.2% (second compound 3.16 µM, first compound 0.3 µM); 38.8% (second compound 3.16 µM, first compound 0.949 µM); 24.4% (second compound 3.16 µM, first compound 3 µM). In addition, the viability, T/C (second compound 10 µM, first compound 0.00949 µM) was 74.8%; the viability, T/C (second compound 10 µM, first compound 0.03 µM) was 70%; the viability, T/C (second compound 10 µM, first compound 0.0949 µM) was 62.4%; the viability, T/C (second compound 10 µM, first compound 0.3 µM) was 50.4%; the viability, T/C (second compound 10 µM, first compound 0.949 µM) is 31.1%; the viability, T/C (second compound 10 µM, first compound 3 µM) is 11.5%.
